Key:
[1] = target: T1, Human immunodeficiency virus type 1 reverse transcriptase (Human immunodeficiency virus 1, UniProt Q72547); test: Competitive inhibition of C-Terminal histidine-tagged wild type heterodimeric HIV-1 reverse transcriptase p66/p51 assessed as inhibition of dGTP incorporation after 15 mins by PAGE
[2] = target: T1, Human immunodeficiency virus type 1 reverse transcriptase; test: Competitive inhibition of C-Terminal histidine-tagged wild type heterodimeric HIV-1 reverse transcriptase p66/p51 assessed as inhibition of dTTP incorporation after 15 mins by PAGE

| SMILES | IC50 [1] | IC50 [2] |
| --- | --- | --- |
| C#CCOCCOCCOCCOCCOCC#Cc1cc(C)c(Oc2ccnc(Nc3ccc(C#N)cc3)n2)c(C)c1 | 64 nM | 122 nM |
| Cc1cc(C#CCOCCOCCOCCOCCOCC#Cc2cn([C@H]3C=C[C@@H](COP(=O)(O)OP(=O)(O)OP(=O)(O)O)O3)c(=O)[nH]c2=O)cc(C)c1Oc1ccnc(Nc2ccc(C#N)cc2)n1 | 42 nM | 3 nM |
| Cc1cc(C#N)cc(C)c1Oc1ccnc(Nc2ccc(C#N)cc2)n1 | 9 nM | 13 nM |
| Cc1cn([C@H]2C=C[C@@H](COP(=O)(O)OP(=O)(O)OP(=O)(O)O)O2)c(=O)[nH]c1=O [STAVUDINE TRIPHOSPHATE] |  | 13000 nM |

Source: ChEMBL document CHEMBL2346547, “Bifunctional inhibition of human immunodeficiency virus type 1 reverse transcriptase: mechanism and proof-of-concept as a novel therapeutic design strategy” (J Med Chem, 2013)
